Results taken from paper PMC11576293, “New series of 4,6-diaryl pyrimidines: facile synthesis and antiproliferative activity as dual EGFR/VEGFR-2 inhibitors” (Frontiers in Chemistry, 2024).

How the values were obtained:
Assay in all cases: NCI-60 single-dose screen
Type in all cases: cell-based
SR = conditions: Homo sapiens, single dose 10 µM, '-' = no inhibition, read-out: % Growth Inhibition
How it was run: (§1)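 Single concentration (10 μM) per compound, assayed by the NCI DTP against its 60-line panel covering leukemia, lung, colon, CNS, melanoma, ovarian, renal, prostate and breast cancers.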

MALME-3M = conditions: Homo sapiens, single dose 10 µM, '-' = no inhibition, read-out: % Growth Inhibition
How it was run: as §1

A549/ATCC = conditions: Homo sapiens, single dose 10 µM, '-' = no inhibition, read-out: % Growth Inhibition
How it was run: as §1

IGROV1 = conditions: Homo sapiens, IGROV-1, single dose 10 µM, '-' = no inhibition, read-out: % Growth Inhibition
How it was run: as §1

UACC-257 = conditions: Homo sapiens, single dose 10 µM, '-' = no inhibition, read-out: % Growth Inhibition
How it was run: as §1

LOX IMVI = conditions: Homo sapiens, single dose 10 µM, '-' = no inhibition, read-out: % Growth Inhibition
How it was run: as §1

SNB-75 = conditions: Homo sapiens, single dose 10 µM, '-' = no inhibition, read-out: % Growth Inhibition
How it was run: as §1

HOP-62 = conditions: Homo sapiens, single dose 10 µM, '-' = no inhibition, read-out: % Growth Inhibition
How it was run: as §1

ACHN 1 = conditions: Homo sapiens, single dose 10 µM, '-' = no inhibition, read-out: % Growth Inhibition
How it was run: as §1

SF-539 = conditions: Homo sapiens, single dose 10 µM, '-' = no inhibition, read-out: % Growth Inhibition
How it was run: as §1

SW-620 = conditions: Homo sapiens, single dose 10 µM, '-' = no inhibition, read-out: % Growth Inhibition
How it was run: as §1

MOLT-4 = conditions: Homo sapiens, single dose 10 µM, '-' = no inhibition, read-out: % Growth Inhibition
How it was run: as §1

NCI/ADR-RES = conditions: Homo sapiens, single dose 10 µM, '-' = no inhibition, read-out: % Growth Inhibition
How it was run: as §1

OVCAR-5 = conditions: Homo sapiens, single dose 10 µM, '-' = no inhibition, read-out: % Growth Inhibition
How it was run: as §1

HCT-15 = conditions: Homo sapiens, single dose 10 µM, '-' = no inhibition, read-out: % Growth Inhibition
How it was run: as §1

RPMI-8226 = conditions: Homo sapiens, single dose 10 µM, '-' = no inhibition, read-out: % Growth Inhibition
How it was run: as §1

U251 = conditions: Homo sapiens, U-251, single dose 10 µM, '-' = no inhibition, read-out: % Growth Inhibition
How it was run: as §1

EKVX = conditions: Homo sapiens, single dose 10 µM, '-' = no inhibition, read-out: % Growth Inhibition
How it was run: as §1

BT-549 = conditions: Homo sapiens, single dose 10 µM, '-' = no inhibition, read-out: % Growth Inhibition
How it was run: as §1

NCI-H522 = conditions: Homo sapiens, single dose 10 µM, '-' = no inhibition, read-out: % Growth Inhibition
How it was run: as §1

CAKI-1 = conditions: Homo sapiens, single dose 10 µM, '-' = no inhibition, read-out: % Growth Inhibition
How it was run: as §1

UACC-62 = conditions: Homo sapiens, single dose 10 µM, '-' = no inhibition, read-out: % Growth Inhibition
How it was run: as §1

SK-MEL-28 = conditions: Homo sapiens, single dose 10 µM, '-' = no inhibition, read-out: % Growth Inhibition
How it was run: as §1

SF-295 = conditions: Homo sapiens, single dose 10 µM, '-' = no inhibition, read-out: % Growth Inhibition
How it was run: as §1

NCI-H23 = conditions: Homo sapiens, single dose 10 µM, '-' = no inhibition, read-out: % Growth Inhibition
How it was run: as §1

TK-10 = conditions: Homo sapiens, single dose 10 µM, '-' = no inhibition, read-out: % Growth Inhibition
How it was run: as §1

SNB-19 = conditions: Homo sapiens, single dose 10 µM, '-' = no inhibition, read-out: % Growth Inhibition
How it was run: as §1

MDA-MB-468 = conditions: Homo sapiens, single dose 10 µM, '-' = no inhibition, read-out: % Growth Inhibition
How it was run: as §1

UO-31 = conditions: Homo sapiens, single dose 10 µM, '-' = no inhibition, read-out: % Growth Inhibition
How it was run: as §1

786-0 = conditions: Homo sapiens, single dose 10 µM, '-' = no inhibition, read-out: % Growth Inhibition
How it was run: as §1

NCI-H460 = conditions: Homo sapiens, single dose 10 µM, '-' = no inhibition, read-out: % Growth Inhibition
How it was run: as §1

HL-60(TB) = conditions: Homo sapiens, single dose 10 µM, '-' = no inhibition, read-out: % Growth Inhibition
DU-145 = conditions: Homo sapiens, single dose 10 µM, '-' = no inhibition, read-out: % Growth Inhibition
How it was run: as §1

OVCAR-4 = conditions: Homo sapiens, single dose 10 µM, '-' = no inhibition, read-out: % Growth Inhibition
How it was run: as §1

SK-OV-3 = conditions: Homo sapiens, single dose 10 µM, '-' = no inhibition, read-out: % Growth Inhibition
How it was run: as §1

KM12 = conditions: Homo sapiens, single dose 10 µM, '-' = no inhibition, read-out: % Growth Inhibition
How it was run: as §1

MDA-MB231/ATCC = conditions: Homo sapiens, MDA-MB-231, single dose 10 µM, '-' = no inhibition, read-out: % Growth Inhibition
How it was run: as §1

RXF 393 = conditions: Homo sapiens, single dose 10 µM, '-' = no inhibition, read-out: % Growth Inhibition
How it was run: as §1

COLO 205 = conditions: Homo sapiens, single dose 10 µM, '-' = no inhibition, read-out: % Growth Inhibition
How it was run: as §1

HOP-92 = conditions: Homo sapiens, single dose 10 µM, '-' = no inhibition, read-out: % Growth Inhibition
How it was run: as §1

PC-3 = conditions: Homo sapiens, single dose 10 µM, '-' = no inhibition, read-out: % Growth Inhibition
How it was run: as §1

OVCAR-3 = conditions: Homo sapiens, single dose 10 µM, '-' = no inhibition, read-out: % Growth Inhibition
How it was run: as §1

M14 = conditions: Homo sapiens, single dose 10 µM, '-' = no inhibition, read-out: % Growth Inhibition
How it was run: as §1

NCI-H322M = conditions: Homo sapiens, single dose 10 µM, '-' = no inhibition, read-out: % Growth Inhibition
How it was run: as §1

A498 = conditions: Homo sapiens, single dose 10 µM, '-' = no inhibition, read-out: % Growth Inhibition
How it was run: as §1

T-47D = conditions: Homo sapiens, T47D, single dose 10 µM, '-' = no inhibition, read-out: % Growth Inhibition
How it was run: as §1

HT29 = conditions: Homo sapiens, HT-29, single dose 10 µM, '-' = no inhibition, read-out: % Growth Inhibition
How it was run: as §1

## COc1ccc(CSc2nc(-c3ccc(Cl)cc3)cc(-c3ccc(OC)cc3)n2)cc1 [Compound 15, 2-(4-Methoxybenzylthio)-4-(4-chlorophenyl)-6-(4-methoxyphenyl)pyrimidine]
SR
  inhibition at 10 µM: 8.9%
MALME-3M
  inhibition at 10 µM: < 0%
A549/ATCC
  inhibition at 10 µM: < 0%
IGROV1
  inhibition at 10 µM: < 0%
UACC-257
  inhibition at 10 µM: < 0%
LOX IMVI
  inhibition at 10 µM: < 0%
SNB-75
  inhibition at 10 µM: < 0%
HOP-62
  inhibition at 10 µM: < 0%
ACHN 1
  inhibition at 10 µM: 15.8%
SF-539
  inhibition at 10 µM: < 0%
SW-620
  inhibition at 10 µM: < 0%
MOLT-4
  inhibition at 10 µM: 3.03%
NCI/ADR-RES
  inhibition at 10 µM: < 0%
OVCAR-5
  inhibition at 10 µM: < 0%
HCT-15
  inhibition at 10 µM: 0.53%
RPMI-8226
  inhibition at 10 µM: < 0%
U251
  inhibition at 10 µM: < 0%
EKVX
  inhibition at 10 µM: < 0%
BT-549
  inhibition at 10 µM: < 0%
NCI-H522
  inhibition at 10 µM: < 0%
CAKI-1
  inhibition at 10 µM: < 0%
UACC-62
  inhibition at 10 µM: < 0%
SK-MEL-28
  inhibition at 10 µM: < 0%
SF-295
  inhibition at 10 µM: < 0%
NCI-H23
  inhibition at 10 µM: 4.6%
TK-10
  inhibition at 10 µM: < 0%
SNB-19
  inhibition at 10 µM: < 0%
MDA-MB-468
  inhibition at 10 µM: < 0%
UO-31
  inhibition at 10 µM: < 0%
786-0
  inhibition at 10 µM: < 0%
NCI-H460
  inhibition at 10 µM: < 0%
HL-60(TB)
  inhibition at 10 µM: 3.01%
DU-145
  inhibition at 10 µM: 0.47%
OVCAR-4
  inhibition at 10 µM: < 0%
SK-OV-3
  inhibition at 10 µM: < 0%
KM12
  inhibition at 10 µM: < 0%
MDA-MB231/ATCC
  inhibition at 10 µM: < 0%
RXF 393
  inhibition at 10 µM: < 0%
COLO 205
  inhibition at 10 µM: 2.89%
HOP-92
  inhibition at 10 µM: < 0%
PC-3
  inhibition at 10 µM: 17.5%
OVCAR-3
  inhibition at 10 µM: 5.05%
M14
  inhibition at 10 µM: < 0%
NCI-H322M
  inhibition at 10 µM: < 0%
A498
  inhibition at 10 µM: < 0%
T-47D
  inhibition at 10 µM: < 0%
HT29
  inhibition at 10 µM: 4.35%

## COc1ccc(-c2cc(-c3cccc(OC)c3)nc(SC)n2)cc1 [Compound 16, 6-(3-Methoxyphenyl)-4-(4-methoxyphenyl)-2-(methylthio)pyrimidine]
SR
  inhibition at 10 µM: 27.7%
MALME-3M
  inhibition at 10 µM: < 0%
A549/ATCC
  inhibition at 10 µM: 13%
IGROV1
  inhibition at 10 µM: < 0%
UACC-257
  inhibition at 10 µM: < 0%
LOX IMVI
  inhibition at 10 µM: 0.51%
SNB-75
  inhibition at 10 µM: < 0%
HOP-62
  inhibition at 10 µM: 1.53%
ACHN 1
  inhibition at 10 µM: < 0%
SF-539
  inhibition at 10 µM: < 0%
SW-620
  inhibition at 10 µM: 1.89%
MOLT-4
  inhibition at 10 µM: 19.9%
NCI/ADR-RES
  inhibition at 10 µM: 11.6%
OVCAR-5
  inhibition at 10 µM: < 0%
HCT-15
  inhibition at 10 µM: 19.5%
RPMI-8226
  inhibition at 10 µM: 3.81%
U251
  inhibition at 10 µM: 10.7%
EKVX
  inhibition at 10 µM: 21.7%
BT-549
  inhibition at 10 µM: 3.3%
NCI-H522
  inhibition at 10 µM: 14.1%
CAKI-1
  inhibition at 10 µM: 20.8%
UACC-62
  inhibition at 10 µM: 23.9%
SK-MEL-28
  inhibition at 10 µM: < 0%
SF-295
  inhibition at 10 µM: 4.05%
NCI-H23
  inhibition at 10 µM: 2.58%
TK-10
  inhibition at 10 µM: < 0%
SNB-19
  inhibition at 10 µM: < 0%
MDA-MB-468
  inhibition at 10 µM: 17.4%
UO-31
  inhibition at 10 µM: 20%
786-0
  inhibition at 10 µM: < 0%
NCI-H460
  inhibition at 10 µM: 1.75%
HL-60(TB)
  inhibition at 10 µM: 22.2%
DU-145
  inhibition at 10 µM: 6.56%
OVCAR-4
  inhibition at 10 µM: 8.29%
SK-OV-3
  inhibition at 10 µM: 13.7%
KM12
  inhibition at 10 µM: 6.2%
MDA-MB231/ATCC
  inhibition at 10 µM: 11%
RXF 393
  inhibition at 10 µM: 11.6%
COLO 205
  inhibition at 10 µM: < 0%
HOP-92
  inhibition at 10 µM: 1.87%
PC-3
  inhibition at 10 µM: 16.6%
OVCAR-3
  inhibition at 10 µM: < 0%
M14
  inhibition at 10 µM: < 0%
NCI-H322M
  inhibition at 10 µM: < 0%
A498
  inhibition at 10 µM: < 0%
T-47D
  inhibition at 10 µM: 22.2%
HT29
  inhibition at 10 µM: 26.2%
